The results in this text go back to ChEMBL document CHEMBL5252611, “2- and 3-Fluoro-3-deaza-1',6'-isoneplanocin: Synthesis and antiviral properties (including Ebola and Marburg)” (Bioorg Med Chem Lett, 2023).

Active and inactive are the calls of the source. The rule behind the calls is not given here.

What is called EC50 is the concentration needed to bring the measured effect to its halfway point. As usually defined, the CC50 is the concentration at which the toxic effect on the cells reaches its halfway point.

In one data set the test system is Punta Toro virus. Put plainly: Antiviral activity against Punta Toro virus Adames infected in African green monkey Vero 76 cells. Type of data set: functional, organism-based.
In data set [1] the test system is Middle East respiratory syndrome-related coronavirus. The data set can be described thus: Antiviral activity against Middle East respiratory syndrome-related coronavirus EMC infected in African green monkey Vero 76 cells. The class given is functional, organism-based.
A further data set has as its system Lassa virus. The data set can be described thus: Antiviral activity against Lassa virus Josiah infected in African green monkey Vero cells. The class given is functional, organism-based. To be noted: Mammarenavirus lassaense.
A further data set relates to Hepatitis B virus. The data set can be described thus: Antiviral activity against HBV ayw1 infected in human HepG2.2.15 cells. To be noted: ayw1, HepG2.2.15. Type of data set: functional, organism-based.
Data set [2] is described as follows: Cytotoxicity against human HepG2.2.15 cells. The class given is toxicity, cell-based, HepG2 2.2.15.
Data set [3] can be described thus: Selectivity index, ratio of CC50 for cytotoxicity against human HepG2.2.15 cells to EC50 for antiviral activity against HBV ayw1 infected in human HepG2.2.15 cells. The class given is toxicity, cell-based. To be noted: read-out: Ratio CC50/EC50.
Data set [4] concerns Measles morbillivirus. Put plainly: Antiviral activity against Measles virus CC infected in African green monkey Vero 76 cells by visual analysis. Type of data set: functional, organism-based.
Data set [5] in a line: Cytotoxicity against African green monkey Vero 76 cells infected with Measles virus CC by visual analysis. Type of data set: toxicity, cell-based. To be noted: chlorocebus sabaeus.
Data set [6] can be described thus: Selectivity index, ratio of CC50 for cytotoxicity against African green monkey Vero 76 cells infected with Measles virus CC by visual analysis to EC50 for antiviral activity against Measles virus CC infected in African green monkey Vero 76 cells by visual analysis. Type of data set: toxicity, cell-based. To be noted: read-out: Ratio CC50/EC50.
The subject of data set [7] is Measles morbillivirus. Put plainly: Antiviral activity against Measles virus CC infected in African green monkey Vero 76 cells by neutral red dye based analysis. The class given is functional, organism-based.
Data set [8] in a line: Cytotoxicity against African green monkey Vero 76 cells infected with Measles virus CC by neutral red dye based analysis. To be noted: chlorocebus sabaeus. The class given is toxicity, cell-based.
The nature of data set [9]: Selectivity index, ratio of CC50 for cytotoxicity against African green monkey Vero 76 cells by neutral red dye based analysis to EC50 for antiviral activity against Measles virus CC infected in African green monkey Vero 76 cells by neutral red dye based analysis. Type of data set: toxicity, cell-based. The conditions noted are these: read-out: Ratio CC50/EC50.
In data set [10] the test system is Rift Valley fever virus. The data set can be described thus: Antiviral activity against Rift Valley fever virus MP-12 infected in African green monkey Vero 76 cells by visual analysis. Type of data set: functional, organism-based. The conditions noted are these: MP-12, Vero 76.
A short description of data set [11]: Cytotoxicity against African green monkey Vero 76 cells infected with Rift Valley fever virus MP-12 by visual analysis. Type of data set: toxicity, cell-based. To be noted: chlorocebus sabaeus.
The nature of data set [12]: Selectivity index, ratio of CC50 for cytotoxicity against African green monkey Vero 76 cells infected with Rift Valley fever virus MP-12 by visual analysis to EC50 for antiviral activity against Rift Valley fever virus MP-12 infected in African green monkey Vero 76 cells by visual analysis. Type of data set: toxicity, cell-based. The conditions noted are these: read-out: Ratio CC50/EC50.

Data set [13] concerns Rift Valley fever virus. The data set can be described thus: Antiviral activity against Rift Valley fever virus MP-12 infected in African green monkey Vero 76 cells by neutral red dye based analysis. Type of data set: functional, organism-based. To be noted: MP-12, Vero 76.
Data set [14] is described as follows: Cytotoxicity against African green monkey Vero 76 cells infected with Rift Valley fever virus MP-12 by neutral red dye based analysis. Type of data set: toxicity, cell-based. The conditions noted are these: chlorocebus sabaeus.
Data set [15] is described as follows: Selectivity index, ratio of CC50 for cytotoxicity against African green monkey Vero 76 cells infected with Rift Valley fever virus MP-12 by neutral red dye based analysis to EC50 for antiviral activity against Rift Valley fever virus MP-12 infected in African green monkey Vero 76 cells by neutral red dye based analysis. Type of data set: toxicity, cell-based. To be noted: read-out: Ratio CC50/EC50.

The test system of data set [16] is Tacaribe virus. The data set can be described thus: Antiviral activity against Tacaribe virus TRVL11573 infected in African green monkey Vero cells by visual analysis. Type of data set: functional, organism-based. To be noted: Mammarenavirus tacaribeense.
The nature of data set [17]: Cytotoxicity against African green monkey Vero cells infected with Tacaribe virus TRVL11573 by visual analysis. The class given is toxicity, cell-based. To be noted: chlorocebus sabaeus.
Data set [18] can be described thus: Selectivity index, ratio of CC50 for cytotoxicity against African green monkey Vero cells infected with Tacaribe virus TRVL11573 by visual analysis to EC50 for antiviral activity against Tacaribe virus TRVL11573 infected in African green monkey Vero cells by visual analysis. The class given is toxicity, cell-based. To be noted: read-out: Ratio CC50/EC50.
In data set [19] the test system is Tacaribe virus. The data set can be described thus: Antiviral activity against Tacaribe virus TRVL11573 infected in African green monkey Vero cells by neutral red dye based analysis. To be noted: Mammarenavirus tacaribeense. Type of data set: functional, organism-based.
Data set [20] can be described thus: Cytotoxicity against African green monkey Vero cells infected with Tacaribe virus TRVL11573 by neutral red dye based analysis. The class given is toxicity, cell-based. To be noted: chlorocebus sabaeus.
The nature of data set [21]: Selectivity index, ratio of CC50 for cytotoxicity against African green monkey Vero cells infected with Tacaribe virus TRVL11573 by neutral red dye based analysis to EC50 for antiviral activity against Tacaribe virus TRVL11573 infected in African green monkey Vero cells by neutral red dye based analysis. The class given is toxicity, cell-based. To be noted: read-out: Ratio CC50/EC50.

For data set [22], the system named is Pichinde virus. The data set can be described thus: Antiviral activity against Pichinde virus AN 4763 infected in African green monkey Vero cells by visual analysis. Type of data set: functional, organism-based. The conditions noted are these: AN 4763, Vero.
A short description of data set [23]: Cytotoxicity against African green monkey Vero cells infected in Pichinde virus AN 4763 by visual analysis. Type of data set: toxicity, cell-based. To be noted: chlorocebus sabaeus, Vero cells infected with Pichinde virus AN 4763.
Data set [24] can be described thus: Selectivity index, ratio of CC50 for cytotoxicity against African green monkey Vero cells infected with Pichinde virus AN 4763 by visual analysis to EC50 for antiviral activity against Pichinde virus AN 4763 infected in African green monkey Vero cells by visual analysis. Type of data set: toxicity, cell-based. To be noted: read-out: Ratio CC50/EC50.
For data set [25], the system named is Pichinde virus. The data set can be described thus: Antiviral activity against Pichinde virus AN 4763 infected in African green monkey Vero cells by neutral red dye based analysis. The conditions noted are these: AN 4763, Vero. The class given is functional, organism-based.
The nature of data set [26]: Cytotoxicity against African green monkey Vero cells infected in Pichinde virus AN 4763 by neutral red dye based analysis. Type of data set: toxicity, cell-based. To be noted: chlorocebus sabaeus, Vero cells infected with Pichinde virus AN 4763.
Data set [27] is described as follows: Selectivity index, ratio of CC50 for cytotoxicity against African green monkey Vero cells infected with Pichinde virus AN 4763 by neutral red dye based analysis to EC50 for antiviral activity against Pichinde virus AN 4763 infected in African green monkey Vero cells by neutral red dye based analysis. To be noted: read-out: Ratio CC50/EC50. The class given is toxicity, cell-based.

For another data set, the system named is Chikungunya virus. The data set can be described thus: Antiviral activity against Chikungunya virus S27 infected in African green monkey Vero 76 cells. The class given is functional, organism-based.
The test system of another data set is dengue virus type 2. The data set can be described thus: Antiviral activity against Dengue virus 2 New Guinea infected in human Huh-7 cells. Type of data set: functional, organism-based.
In data set [28] the test system is Japanese encephalitis virus. The data set can be described thus: Antiviral activity against Japanese encephalitis virus SA 14 infected in African green monkey Vero 76 cells. The class given is functional, organism-based.
Data set [29] concerns Rift Valley fever virus. The data set can be described thus: Antiviral activity against Rift Valley fever virus MP-12 infected in African green monkey Vero 76 cells. Type of data set: functional, organism-based.
The test system of data set [30] is Tacaribe virus. The data set can be described thus: Antiviral activity against Tacaribe virus TRVL11573 infected in African green monkey Vero cells. To be noted: Mammarenavirus tacaribeense. The class given is functional, organism-based.
The test system of data set [31] is Human betaherpesvirus 5. The data set can be described thus: Antiviral activity against Human betaherpesvirus 5 AD 169 infected in HFF cells. Type of data set: functional, organism-based.
The subject of data set [32] is Venezuelan equine encephalitis virus. The data set can be described thus: Antiviral activity against Venezuelan equine encephalitis virus TC-83 infected in African green monkey Vero 76 cells. The class given is functional, organism-based.
The subject of the next data set is Zaire ebolavirus. Put plainly: Antiviral activity against Zaire ebolavirus infected in African green monkey Vero cells. Type of data set: functional, organism-based.
Data set [33] in a line: Cytotoxicity against African green monkey Vero cells infected with Zaire ebolavirus. Type of data set: toxicity, cell-based. The conditions noted are these: chlorocebus sabaeus.
Data set [34] in a line: Selectivity index, ratio of CC50 for cytotoxicity against African green monkey Vero cells infected with Zaire ebolavirus to EC50 for antiviral activity against Zaire ebolavirus infected in African green monkey Vero cells. The conditions noted are these: read-out: Ratio CC50/EC50. The class given is toxicity, cell-based.
In the next data set the test system is Marburgvirus. The data set can be described thus: Antiviral activity against Marburgvirus Angola infected in African green monkey Vero cells. Type of data set: functional, organism-based. To be noted: Orthomarburgvirus.
The nature of data set [35]: Cytotoxicity against African green monkey Vero cells infected with Marburgvirus Angola. Type of data set: toxicity, cell-based. The conditions noted are these: chlorocebus sabaeus.
Data set [36] is described as follows: Selectivity index, ratio of CC50 for cytotoxicity against African green monkey Vero cells infected with Marburgvirus Angola to EC50 for antiviral activity against Marburgvirus Angola infected in African green monkey Vero cells. The class given is toxicity, cell-based. The conditions noted are these: read-out: Ratio CC50/EC50.
The test system of data set [37] is Rift Valley fever virus. The data set can be described thus: Antiviral activity against Rift Valley fever virus. The class given is functional, organism-based.
The subject of data set [38] is Tacaribe virus. The data set can be described thus: Antiviral activity against Tacaribe virus. The class given is functional, organism-based. The conditions noted are these: Mammarenavirus tacaribeense.
The subject of data set [39] is Human betaherpesvirus 5. The data set can be described thus: Antiviral activity against Human betaherpesvirus 5. The class given is functional, organism-based.
The test system of another data set is Influenza A virus. Put plainly: Antiviral activity against influenza A virus H5N1. The class given is functional, organism-based.
The test system of the next data set is Influenza B virus. The data set can be described thus: Antiviral activity against influenza B virus. The class given is functional, organism-based.

In the case of `Nc1nc(F)cc2c1ncn2C1=C[C@H](CO)[C@@H](O)[C@H]1O`, the result (with Punta Toro virus; in data set [1]; in the data set with Lassa virus; with Chikungunya virus; with dengue virus type 2; in data set [28]) was inactive. For the same molecule, the result (in the data set with Rift Valley fever virus [29]; with Tacaribe virus [30]; with Human betaherpesvirus 5 [31]; in data set [32]) was inactive. For the same molecule, the concentration giving a half-maximal response (EC50) in the data set with Hepatitis B virus was 0.43 µM; in the data set with Measles morbillivirus [4] it was 0.36 µM; in the data set with Measles morbillivirus [7], 0.39 µM; in the data set with Rift Valley fever virus [10], 22.1 µM; with Rift Valley fever virus [13], 33.2 µM; in the data set on Tacaribe virus [16], 10.7 µM. Moreover, the EC50 came out at 8.6 µM in the data set on Tacaribe virus [19], 3.32 µM in the data set on Pichinde virus [22] and 2.57 µM with Pichinde virus [25]. Moreover, the 50% cytotoxic concentration (CC50) came to 48.2 µM in data set [2]; 114 µM in data set [5]; 36 µM in data set [8]; 114 µM in [11]; 132 µM in data set [14]; 75 µM in [17]. Also, the CC50 in data set [20] came out at 50 µM; in data set [23], 46 µM; in data set [26], 50 µM. Besides, the selectivity ratio in [3] came to 113; in [6] it was 320; in [9], 91; in data set [12], 5.2; in data set [15], 4; in data set [18], 7. The values for the selectivity ratio in data set [21], in [24] and in [27] were 5.8, 14 and 19, respectively.
`Nc1ccn([C@@H]2CS[C@H](CO)O2)c(=O)n1` [LAMIVUDINE] gave a 50% effective concentration (EC50) with Hepatitis B virus of 0.02 µM. The cytotoxic concentration (CC50) in data set [2] was more than 2 µM. The selectivity ratio in data set [3] is more than 99.
Turning to `NC(=O)c1nc(F)cnc1O` [FAVIPIRAVIR], the results for the EC50 in the data set with Zaire ebolavirus and in the data set on Marburgvirus were 24 µM and 167 µM, respectively. The half-maximal cytotoxic concentration (CC50) in [33] and in [35] was more than 1000 µM in each case. The selectivity ratio is more than 43 in data set [34] and more than 6 in [36].
As to `Nc1nc(F)cc2c1ncn2[C@@H]1C=C(CO)[C@@H](O)[C@H]1O`, the result in the data set on Rift Valley fever virus [37], in the data set on Tacaribe virus [38], in the data set with Human betaherpesvirus 5 [39], with Influenza A virus and with Influenza B virus was Active.
